Our source for the IC50, Activity and EC50 values is ChEMBL document CHEMBL3259582, “Structure-activity relationship-guided development of retinoic acid receptor-related orphan receptor gamma (RORγ)-selective inverse agonists with a phenanthridin-6(5H)-one skeleton from a liver X receptor ligand” (Bioorg Med Chem, 2014).

The target of data set [1] is T1, Nuclear receptor ROR-alpha (Homo sapiens, UniProt P35398).
T1 sequence (P35398 whole entry): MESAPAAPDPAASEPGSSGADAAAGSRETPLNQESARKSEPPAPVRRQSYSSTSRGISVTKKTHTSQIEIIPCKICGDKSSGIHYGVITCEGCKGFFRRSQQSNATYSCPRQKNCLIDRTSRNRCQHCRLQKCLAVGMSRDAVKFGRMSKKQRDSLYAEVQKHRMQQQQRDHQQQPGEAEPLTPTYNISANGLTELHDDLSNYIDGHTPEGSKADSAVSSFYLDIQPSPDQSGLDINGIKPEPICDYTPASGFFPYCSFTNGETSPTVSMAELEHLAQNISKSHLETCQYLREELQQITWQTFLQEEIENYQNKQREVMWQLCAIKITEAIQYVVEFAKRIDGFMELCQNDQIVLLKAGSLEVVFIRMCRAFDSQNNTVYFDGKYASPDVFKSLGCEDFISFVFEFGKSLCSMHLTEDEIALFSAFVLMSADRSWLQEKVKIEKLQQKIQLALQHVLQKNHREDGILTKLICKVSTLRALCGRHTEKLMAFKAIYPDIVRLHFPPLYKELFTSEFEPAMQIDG
Nature of the data set: Inverse agonist activity at human ROR-alpha1 expressed in HEK293 cells after 16 hrs by luciferase reporter gene assay. The format is cell-based.

For data set [2], the target named is T2, Nuclear receptor ROR-beta (Homo sapiens, UniProt Q92753).
T2 sequence (Q92753 whole entry): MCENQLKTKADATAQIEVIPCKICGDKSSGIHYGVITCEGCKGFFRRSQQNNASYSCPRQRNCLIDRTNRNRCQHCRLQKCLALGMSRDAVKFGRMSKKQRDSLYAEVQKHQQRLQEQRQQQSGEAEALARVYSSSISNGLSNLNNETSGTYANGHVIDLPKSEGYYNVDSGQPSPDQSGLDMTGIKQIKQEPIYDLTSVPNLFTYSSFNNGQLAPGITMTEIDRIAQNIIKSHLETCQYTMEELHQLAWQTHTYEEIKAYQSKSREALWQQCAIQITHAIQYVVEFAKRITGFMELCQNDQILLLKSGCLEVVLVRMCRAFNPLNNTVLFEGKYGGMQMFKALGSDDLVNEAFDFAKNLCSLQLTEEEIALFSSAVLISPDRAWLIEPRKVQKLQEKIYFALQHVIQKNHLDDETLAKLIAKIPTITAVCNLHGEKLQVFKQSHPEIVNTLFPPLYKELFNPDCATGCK
The data set is described as follows: Inverse agonist activity at human ROR-beta expressed in HEK293 cells after 16 hrs by luciferase reporter gene assay. The data set is classed as cell-based.

The target in data set [3] is T3, Nuclear receptor ROR-gamma (Homo sapiens, UniProt P51449).
T3 sequence (P51449 whole entry): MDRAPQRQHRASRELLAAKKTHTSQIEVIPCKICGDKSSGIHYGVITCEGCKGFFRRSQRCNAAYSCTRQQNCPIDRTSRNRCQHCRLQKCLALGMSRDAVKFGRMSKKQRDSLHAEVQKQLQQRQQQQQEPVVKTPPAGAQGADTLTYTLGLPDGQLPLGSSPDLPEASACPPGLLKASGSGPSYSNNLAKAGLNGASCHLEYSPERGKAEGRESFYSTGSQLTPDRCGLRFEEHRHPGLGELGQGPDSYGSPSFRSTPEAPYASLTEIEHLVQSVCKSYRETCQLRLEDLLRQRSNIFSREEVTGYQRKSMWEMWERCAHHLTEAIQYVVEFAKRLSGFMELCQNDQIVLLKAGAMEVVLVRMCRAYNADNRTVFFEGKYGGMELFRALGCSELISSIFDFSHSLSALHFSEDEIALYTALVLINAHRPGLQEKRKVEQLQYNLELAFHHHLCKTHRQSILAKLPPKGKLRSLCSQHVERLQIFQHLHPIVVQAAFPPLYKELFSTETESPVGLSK
Nature of the data set: Inverse agonist activity at human ROR-gamma1 expressed in HEK293 cells after 16 hrs by luciferase reporter gene assay. The format is cell-based.

The subject of a further data set is HEK293. Nature of the data set: Cytotoxicity against HEK293 cells. The settings on record: human. The format is cell-based.
For data set [4], the target named is T4, Oxysterols receptor LXR-alpha (Homo sapiens, UniProt Q13133).
T4 sequence (Q13133 whole entry): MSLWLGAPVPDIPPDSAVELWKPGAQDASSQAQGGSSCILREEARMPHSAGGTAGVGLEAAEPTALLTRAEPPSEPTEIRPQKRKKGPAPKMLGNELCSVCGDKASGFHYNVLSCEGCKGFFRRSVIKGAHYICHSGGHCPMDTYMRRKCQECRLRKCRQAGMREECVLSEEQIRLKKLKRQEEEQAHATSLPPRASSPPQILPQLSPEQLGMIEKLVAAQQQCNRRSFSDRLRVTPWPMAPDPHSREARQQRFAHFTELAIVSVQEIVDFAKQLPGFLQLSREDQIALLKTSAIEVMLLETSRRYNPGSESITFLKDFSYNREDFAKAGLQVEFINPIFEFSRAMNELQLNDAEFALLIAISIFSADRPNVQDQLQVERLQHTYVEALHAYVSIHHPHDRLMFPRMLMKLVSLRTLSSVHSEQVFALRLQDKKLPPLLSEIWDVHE
The data set is described as follows: Agonist activity at human LXR-alpha expressed in HEK293 cells after 16 hrs by luciferase reporter gene assay.

Data set [5] addresses T4, Oxysterols receptor LXR-alpha. The data set is described as follows: Antagonist activity at human LXR-alpha expressed in HEK293 cells assessed as inhibition of T0901317-induced effect after 16 hrs by luciferase reporter gene assay. The data set is classed as cell-based.
Data set [6] deals with T5, Oxysterols receptor LXR-beta (Homo sapiens, UniProt P55055).
T5 sequence (P55055 whole entry): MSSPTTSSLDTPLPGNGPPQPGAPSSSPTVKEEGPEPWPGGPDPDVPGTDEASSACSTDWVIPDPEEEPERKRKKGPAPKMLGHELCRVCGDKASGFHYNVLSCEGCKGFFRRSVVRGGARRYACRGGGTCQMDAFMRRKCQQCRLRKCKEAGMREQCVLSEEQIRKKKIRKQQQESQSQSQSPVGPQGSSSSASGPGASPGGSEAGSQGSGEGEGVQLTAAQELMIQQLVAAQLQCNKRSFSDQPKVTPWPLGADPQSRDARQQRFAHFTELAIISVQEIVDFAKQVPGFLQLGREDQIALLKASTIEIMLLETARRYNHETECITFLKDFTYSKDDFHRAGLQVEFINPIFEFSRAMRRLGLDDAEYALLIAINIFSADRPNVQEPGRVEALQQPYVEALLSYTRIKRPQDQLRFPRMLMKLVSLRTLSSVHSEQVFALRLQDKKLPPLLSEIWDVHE
Nature of the data set: Agonist activity at human LXR-beta expressed in HEK293 cells after 16 hrs by luciferase reporter gene assay.

For data set [7], the target named is T5, Oxysterols receptor LXR-beta. The data set is described as follows: Antagonist activity at human LXR-beta expressed in HEK293 cells assessed as inhibition of T0901317-induced effect after 16 hrs by luciferase reporter gene assay. The format is cell-based.
In data set [8] the target is T4, Oxysterols receptor LXR-alpha. Nature of the data set: Antagonist activity at human LXR-alpha expressed in HEK293 cells after 16 hrs by luciferase reporter gene assay. The format is cell-based.
Data set [9] concerns the target T5, Oxysterols receptor LXR-beta. Nature of the data set: Antagonist activity at human LXR-beta expressed in HEK293 cells after 16 hrs by luciferase reporter gene assay. The format is cell-based.

Consider `CCCCn1c(=O)c2ccccc2c2cc(CO)ccc21`, for which the IC50 in data set [1] (read-out: IC50), in data set [2] (read-out: IC50) and in data set [3] (read-out: IC50) was more than 20 µM in each case.
Turning to `CCCCn1c(=O)c2ccccc2c2cc(C(C)(C)C)ccc21`, the IC50 in [1] (read-out: IC50) was determined as 11.8 µM; in data set [2] (read-out: IC50), 12.8 µM; in [3] (read-out: IC50), 10.4 µM.
In the case of `CCCCn1c(=O)c2ccccc2c2cc(C(O)(C(F)(F)F)C(F)(F)F)ccc21`, the IC50 amounted to 9.8 µM in data set [1] (read-out: IC50), 6.5 µM in data set [2] (read-out: IC50) and 3.9 µM in [3] (read-out: IC50).
For `CCCCCCn1c(=O)c2ccccc2c2cc(C(O)(C(F)(F)F)C(F)(F)F)ccc21`, the IC50 turned out to be 7.6 µM in data set [1] (read-out: IC50), 5.4 µM in [2] (read-out: IC50) and 4.7 µM in data set [3] (read-out: IC50).
For `CCCCn1c(=O)c2ccccc2c2cc(CC)ccc21`, the IC50 was found to be 9 µM in data set [1] (read-out: IC50), 7.9 µM in data set [2] (read-out: IC50) and 9.2 µM in data set [3] (read-out: IC50).
On to `CCCCn1c(=O)c2ccccc2c2ccccc21`, for which the IC50 in data set [1] (read-out: IC50) amounted to 10.2 µM; in data set [2] (read-out: IC50), 13.4 µM; in data set [3] (read-out: IC50), 14.5 µM.
On to `CCCCn1c(=O)c2ccccc2c2cc(C)ccc21`, for which the IC50 in data set [1] (read-out: IC50) stood at 17.6 µM; in data set [2] (read-out: IC50) it was 17.1 µM; in [3] (read-out: IC50), 16.8 µM.
Turning to `CCCCCCCCCn1c(=O)c2ccccc2c2cc(C(O)(C(F)(F)F)C(F)(F)F)ccc21`, the IC50 in data set [1] (read-out: IC50), in [2] (read-out: IC50) and in [3] (read-out: IC50) was more than 20 µM throughout.
In the case of `CCn1c(=O)c2ccccc2c2cc(C(O)(C(F)(F)F)C(F)(F)F)ccc21`, the IC50 in data set [1] (read-out: IC50), in data set [2] (read-out: IC50) and in [3] (read-out: IC50) was more than 20 µM each time.
Regarding `CCCCn1c(=O)c2c(OC)cccc2c2cc(C(O)(C(F)(F)F)C(F)(F)F)ccc21`, the Activity entry in the data set with HEK293 is reported as “Toxic”.
Take `CCCCn1c(=O)c2ccccc2c2cc(C(O)(C(F)(F)F)C(F)(F)F)c(OC)cc21`: the results for the IC50 in data set [1] (read-out: IC50), in data set [2] (read-out: IC50) and in data set [3] (read-out: IC50) were 7.8 µM, 10.9 µM and 9.2 µM, respectively.
In the case of `CCCCn1c(=O)c2ccccc2c2cc(C(O)(C(F)(F)F)C(F)(F)F)cc(OC)c21`, the IC50 in [1] (read-out: IC50), in data set [2] (read-out: IC50) and in data set [3] (read-out: IC50) was more than 10 µM in each case.
As for `CCCCn1c(=O)c2cc(OC)ccc2c2cc(C(O)(C(F)(F)F)C(F)(F)F)ccc21`, the Activity entry with HEK293 is recorded as “Toxic”.
Turning to `CCCCn1c(=O)c2ccc(OC)cc2c2cc(C(O)(C(F)(F)F)C(F)(F)F)ccc21`, the IC50 in data set [1] (read-out: IC50) stood at 5.3 µM; in [2] (read-out: IC50), 7.7 µM; in data set [3] (read-out: IC50) it was 1.1 µM.
`CCCCn1c(=O)c2cccc(OC)c2c2cc(C(O)(C(F)(F)F)C(F)(F)F)ccc21`: the IC50 in data set [1] (read-out: IC50) was determined as 9.1 µM; in [2] (read-out: IC50) it was 7.5 µM; in [3] (read-out: IC50) it was 5.7 µM.
The matching figures for `Cn1c(=O)c2ccccc2c2cc(C(O)(C(F)(F)F)C(F)(F)F)ccc21`: more than 20 µM, more than 20 µM and more than 20 µM.
For the molecule `CC(=O)Nc1nc(C)c(S(=O)(=O)Nc2ccc(C(O)(C(F)(F)F)C(F)(F)F)cc2)s1`, the EC50 result in data set [4] and in data set [6] was “Not Active” throughout. The IC50 entry in data set [5] (hek293) and in data set [7] (hek293) was “Not Active” each time.
On to `O=c1[nH]c2ccc(C(O)(C(F)(F)F)C(F)(F)F)cc2c2ccccc12`, for which the IC50 in [1] (read-out: IC50), in data set [2] (read-out: IC50) and in data set [3] (read-out: IC50) was more than 20 µM in each case.
`CCCn1c(=O)c2ccccc2c2cc(C(O)(C(F)(F)F)C(F)(F)F)ccc21`: the IC50 in data set [1] (read-out: IC50) was determined as 10.8 µM; in [2] (read-out: IC50), 8.2 µM; in data set [3] (read-out: IC50) it was 4.2 µM.
`CCCCCCCCCCCCc1ccc2c(c1)c1ccccc1c(=O)n2CCCC`: the IC50 entry in data set [1] (hek293), in [2] (hek293) and in data set [3] (hek293) was “Not Active” in each case.
For the molecule `CCCCn1c(=O)c2ccc(Cl)cc2c2cc(C(O)(C(F)(F)F)C(F)(F)F)ccc21`, the EC50 entry in data set [4] and in [6] was “Not Active” in each case. For the same molecule, the IC50 is more than 3 µM in data set [5] (read-out: IC50) and 680 nM in data set [7] (read-out: IC50).
As for `O=S(=O)(c1ccccc1)N(CC(F)(F)F)c1ccc(C(O)(C(F)(F)F)C(F)(F)F)cc1` [T091317], the IC50 result in data set [2] (hek293), in data set [8] and in data set [9] was “Not Active” each time.
